Source: patent publication US8889156B2, “Calcium-binding agents induce hair growth and/or nail growth” (priority 2009, dated 2014)

Key:
[1] = literature values quoted for comparison; cited from earlier work
[2] = Binding of labeled peptide to sagittally sectioned adult human molars (CLSM, Example 6); settings: fluorescein-labeled peptide, 10 min
Procedure: For binding experiments, sagittally sectioned adult human molars were incubated for 10 min in a solution of 12.5 p.M 5(6)-carboxyfluorescein-labeled 6DSS (SEQ ID NO:32) peptide containing 10 mM NaCl and 50 mM HEPES, pH 7.0. Control samples were prepared without peptide. Samples were rinsed after treatment and imaged by confocal laser scanning microscopy (CLSM) with illumination by a blue Kr/Ar laser (λ=488 nm) and a FITC emission filter. To test binding of DSS-containing peptides to biological tissue, sagittally sectioned human teeth were incubated treated with 6DSS (SEQ ID NO:32) (control samples were prepared without peptide), washed, and imaged by CLSM.

[3] = Binding of labeled peptides to carious lesions in teeth (CLSM); parameters: species or system human; settings: labeled peptide, settings optimized per sample
From the text: Sections of human teeth containing obvious carious lesions, which consist of demineralized enamel, were polished and exposed to 5(6)-carboxyfluorescein-labeled DSS peptides and variants. The sections were washed extensively and imaged by CLSM using blue laser illumination (A=488 nm) and a FITC emission filter, with microscope and camera settings adjusted for each sample to optimize the signal detected from each peptide. The images were examined to identify the relative levels of peptide binding in healthy versus carious tissue. […] Given their ability to remineralize at sites of enamel degradation, they can also be used to initiate remineralization at sites of enamel degradation such as caries or injury sites without causing inappropriate nucleation on healthy tissue surfaces.

[4] = HA binding assay (pulldown of fluorescein-labeled peptides, Langmuir isotherm fit); settings: fit of Langmuir equation
Procedure: Fluorescein-labeled DSS-containing peptides of various lengths were subjected to pulldown assays as follows: Samples containing varying concentrations of fluorescein-labeled peptide (0-100 μM) and a fixed amount (0.3 mg) of HA nanocrystals with a specific surface area of 100 m^2/g (Berkeley Advanced Biomaterials, Berkeley, Calif.) were prepared. Measurements were taken of the absorbance of the labeled peptide at 488 nm (the peak absorbance of the fluorescein label) before and after exposure to the HA. The amount of peptide bound was calculated by comparing the ratio of the final (Af) and initial (Ai) absorbances to the initial concentration (C0) [Cbound=(Af/Ai)C0]. Plots were generated of the amount of peptide bound per meter squared of HA surface area vs. concentration of unbound peptide at equilibrium. The resulting isotherms were fit to the Langmuir isotherm, x/m=(KANmaxCeq)/(1+KACeq), where x/m represents the molar amount of peptide bound per unit of HA surface area, KA is the affinity constant of the peptide for the HA surface (L/Mol), Nmax is the maximum surface concentration (mol/m^2), and Ceq is the molar concentration of unbound peptide at equilibrium (Calis et al. (1995) Pharm Res., 12: 1072-1076).
In order to quantitatively assess the strength of the DSS-HA interaction as well as to determine the roles of peptide length and sequence on binding, fluorescein-labeled, DSS-containing peptides of various lengths were subjected to pulldown assays as described in “Materials and Methods.”
The experimental data were fit to the Langmuir isotherm, which describes the binding of molecules to surfaces with the conditions that (1) all binding sites have the same affinity for the peptide and (2) the peptide will form a monolayer on the surface but cannot accumulate to higher levels (Atkins (1994) Physical chemistry. Freeman, New York). The excellent fit of the Langmuir isotherm to the experimental data validates these conditions, and the constants obtained from this analysis were used for comparisons between peptides. As shown in FIG. 7A and summarized in Table 6, both the binding affinity (KA) and the monolayer concentration (NMax) of the various peptides increased with the number of DSS repeats per peptide. Additionally, several variant peptides were tested (FIGS. 7B, 7C, Table 6): a peptide containing a longer side chain at the first position (4ESS (SEQ ID NO:34)), peptides containing a more sterically hindered hydroxyl group at the second and third positions (4DTT (SEQ ID NO:36), 4NTT (SEQ ID NO:38), 4ETT (SEQ ID NO:37)), peptides lacking a charged group at the first position (4NSS (SEQ ID NO:35), 8ASS (SEQ ID NO:26)), and peptides lacking hydroxyl groups at the second and third positions (DAA-8 (SEQ ID NO:40), 8NAA (SEQ ID NO:41)).

[5] = Free peptide with CaCl2 and NaHPO4: formation of HA crystals in solution; settings: 25 μM free peptide
[6] = test system: mineralizing mouse bone marrow nodules; assay: Binding to mineralizing mouse bone marrow cultures (fluorescence microscopy); assay type: cell-based; settings: labeled peptide, continuous treatment for 3 weeks
Procedure: Mouse bone marrow cultures were grown to confluence in DMEM+10% FBS and then treated continuously for 3 weeks with either 2.5 p.M 5(6)-carboxyfluorescein-labeled 6DSS (SEQ ID NO:32) or 2.5 p.M 5(6)-carboxyfluorescein-labeled peptide #3-1 (control peptide) in α-MEM+10% FBS+50 p.g/mL ascorbic acid 4 mM β-glycerophosphate. Cultures were imaged by fluorescence microscopy using a FITC excitation/emission filter set.
Having established that (DSS)n-containing peptides are able to actively bind HA, we sought to determine whether they would bind to emerging sites of mineralization in biologically derived tissue. Mouse bone marrow (MBM) cultures, cultured under osteogenic conditions, were treated continuously for 3 weeks with either labeled 6DSS (SEQ ID NO:32) peptide or labeled peptide #3-1 (non-calcium-binding control peptide). Cultures were imaged by fluorescence microscopy using a FITC excitation/emission filter set.

[7] = Tissue specific binding of labeled peptides to sections of human teeth (CLSM); settings: 5(6)-carboxyfluorescein-labeled peptide, ten minutes
From the text: In order to investigate the tissue specificity of DSS peptide binding to tooth tissue, sections of human teeth were exposed to DSS peptides and variants, then imaged by CLSM. The peptides utilized for these experiments were 8DSS (SEQ ID NO:33), 8ASS (SEQ ID NO:26), 8DAA (SEQ ID NO:40), 8NAA (SEQ ID NO:41), 4DSS (SEQ ID NO:31), 4ESS (SEQ ID NO:34), 4NSS (SEQ ID NO:35), 4DTT (SEQ ID NO:36), 4ETT (SEQ ID NO:37), 4NTT (SEQ ID NO:38), and 6DSS (SEQ ID NO:32). Sagittal sections of human teeth extracted during normal clinical practice were polished and then incubated for ten minutes in a solution of the appropriate 5(6) carboxyfluorescein-labeled peptide (12.5pM) containing 10 mM NaCl and 50 mM HEPES, pH 7.0. Control samples were prepared without peptide. Samples were washed extensively after treatment and imaged by CLSM using blue laser illumination (A=488 nm) and a FITC emission filter, with identical camera and microscope settings for each sample. For each section, multiple scans were collected and assembled in an automated mode to generate panels of images representing an area of 13×13 mm, sufficient in most cases to encompass the whole section. […] Significant binding was also seen to the edges of the pulp cavity.

N[C@@H](CC(=O)O)C(=O)O [Asp, aspartic acid]
HA binding affinity [1]: 220 M⁻¹

N[C@@H](CCC(=O)O)C(=O)O [glutamic acid]
HA binding affinity [1]: 206 M⁻¹

N[C@@H](COP(=O)(O)O)C(=O)O [phosphoserine]
HA binding affinity [1]: 5,000-13,200 M^−1

N[C@@H](CO)C(=O)O [serine]
HA binding affinity [1]: 317,000 M^−1

DSS DSS DSS DSS DSS DSS (DSSDSSDSSDSSDSSDSS; synthetic calcium-binding peptide 6DSS)
binding to dentin [2]: intense fluorescent staining
binding to enamel [2]: no binding to the enamel was seen
specificity of binding to carious lesions versus healthy enamel [3]: highly specific binding to carious lesions
strength of staining of carious lesions [3]: exceptionally strong staining of carious lesions
Nmax (maximum monolayer surface concentration) [4]: 1.3 × 10^−7 ± 3 × 10^−9 mol/m^2
KA (binding affinity for HA) ([4]; fluorescein-labeled peptide 0-100 μM, 0.3 mg HA nanocrystals): 272,000 ± 26,000 M^−1
enhancement of HA crystal formation by free peptide at subcritical CaHPO4 concentrations [5]: this was not observed
staining of mineralizing MBM nodules [6]: bright staining of the mineralizing MBM nodules
tissue pattern of binding in the tooth section [7]: bound primarily to the mantle dentin
level of binding (staining) to tooth surfaces ([7]; identical settings): the greatest levels of staining

LIKHILHRL [#3-1, reference compound]
staining of mineralizing MBM nodules [6]: no binding seen
